Measured values: patent US20230084899A1, “COMBINATION OF AN AHR-INHIBITOR AND AN PD1-INHIBITOR ANTIBODY AND ITS USE IN THE TREATMENT OF CANCER” (Bayer Aktiengesellschaft, priority 2019, published 2023)
“Also recorded” adds a separate entry of the source.

Assays:
[1] = tested on: human T cell/DC co-cultures; test: Mixed lymphocyte reaction: IL-2 in supernatants of matured DC / T cell co-culture; assay type: cell-based
Method: Whole blood samples from healthy donors were collected and PBMCs were isolated using density gradient centrifugation for 15 min at 800×g at room temperature with Biocoll separation solution (density […]; Biochrom, #L6115). The supernatants were discarded and the PBMCs were poured into 50 ml tubes, washed with PBS without Ca^+/Mg^+, counted and resuspended in MACS separation buffer (Miltenyi Biotec). The monocytes were isolated from PBMCs using the Monocyte Isolation Kit II (Miltenyi Biotec, Cat #130-091-153) according to manufacturer's instructions. On the day of co-culture, T cells were isolated from PBMC preparations obtained from whole blood of different donors using the Pan T Cell Isolation Kit (Auto MACS Pro, Cat #130-096-535).
Monocytes were differentiated into monocyte-derived dendritic cells (moDCs) using 100 ng/ml GM-CSF (R&D Systems, Cat #215-GM) and 100 ng/ml rhIL4 (R&D Systems, Cat #204-IL) for 6 days at 37° C., 5% CO2. To produce mature DCs, moDCs were further matured for 24 h with IFNγ (R&D Systems, Cat #285-IF) and lipopolysaccharide (LPS) from Escherichia coli O127: B8 (Sigma, Cat #L4516).
For the co-culture assay, matured DCs and T cells from different donors were used. The cells were seeded in 96-well plates (Costar, Cat #3585) at 1×10^4 cells/well for matured DCs and 5×10^4 cells/well for T cells. A serial dilution of component A (3× dilution steps) in combination with anti-programmed cell death 1 antibody (as component B: aPD-1; 1 μg/ml pembrolizumab or 3 μg/ml nivolumab) or respective concentrations of hIgG4 (isotype control TPP10747, PPB11084) was added and the cells were incubated for 3 days at 37° C., 5% CO2.
IL-2 cytokine levels were measured in aliquots of supernatants using the Human IL-2 Tissue Culture kit (Meso Scale Discovery, Cat #K151AHB-4).

tumor cell proliferation = test: Anti-proliferative effect of the combination (tumor cell proliferation); assay type: cell-based

Compound: C[C@@H](CO)NC(=O)c1cc(-c2ccc(Cl)cc2)nn(-c2cnn(C)c2)c1=O [component A, 6-(4-Chlorophenyl)-N-[(2S)-1-hydroxypropan-2-yl]-2-(1-methyl-1H-pyrazol-4-yl)-3-oxo-2,3-dihydropyridazine-4-carboxamide]
- T cell activity (observed by IL-2 production) ([1]; alone and in combination with PD1 antibodies): enhances T cell activity
- IL-2 production from T cells ([1]; component A alone (component A+hIgG4 isotype control), serial dilution, 3 days co-culture): dose-dependent response
- IL-2 levels, combination compared to aPD-1 or component A alone ([1]; component A serial dilution + 1 μg/ml pembrolizumab, 3 days co-culture (FIG. 1)): higher IL-2 levels
- IL-2 levels, combination compared to aPD-1 or component A alone ([1]; component A serial dilution + 3 μg/ml nivolumab, 3 days co-culture (FIG. 2)): higher IL-2 levels

Compound: C[C@@H](CO)NC(=O)c1cc(-c2ccc(Cl)cc2)nn(-c2cnn(C)c2)c1=O [6-(4-Chlorophenyl)-N-[(2S)-1-hydroxypropan-2-yl]-2-(1-methyl-1H-pyrazol-4-yl)-3-oxo-2,3-dihydropyridazine-4-carboxamide]
- inhibiting tumor cell proliferation (tumor cell proliferation; in combination with nivolumab): synergistic effects
- anti-proliferative effect / inhibiting tumor cell proliferation (tumor cell proliferation; in combination with pembrolizumab): very strong synergy; also recorded: synergistic effects
